# Test results taken from a melting point compilation (Tetko et al.; mined from patent text by program, amines drawn as free bases though some values may be those of a salt).
row,Compound,melting point
1,COc1nccnc1C1(O)CN2CCC1CC2 (centres undefined),130 to 131 °C
2,O=C(CC1CCCCC1=O)c1ccc(Cl)cc1 (centres undefined),56 to 58 °C
3,CC(=O)c1ccc(Nc2ccncc2N)cc1,165 to 166 °C
4,O=C1CSCC2=C1C(c1ccc(F)c(Br)c1)n1nccc1N2 (centres undefined),160 to 163 °C
5,CCCCN(CCCc1coc2c(OC)cccc12)C1COc2c(F)ccc(C(N)=O)c2C1 (centres undefined),110 to 117 °C
6,Cc1oc(-c2ccccc2)nc1COc1ccc(Cn2cc(CCC(=O)O)c(O)n2)cc1,197 to 198 °C
7,O=C1Cc2cccc(-c3ccccc3)c2N1,167 to 169 °C
8,CCCCc1oc2ccccc2c1/C=N/OCCCOc1ccc(CC(=O)O)cc1,181 to 182 °C
9,COc1ccc(NC(=O)c2ccc(C3(C#N)CCCC3)cc2)cc1,163 to 168 °C
10,Cc1c(Br)c(Br)nn1C(C)C(=O)N(C)C(C)C (centres undefined),95 to 96.5 °C
11,CC(C)(C)c1cc(Cc2cc(C(C)(C)C)cc(C(C)(C)C)c2O)c(O)c(-n2nc3ccccc3n2)c1,208 °C
12,CSC1=C(c2cccc3sccc23)N2CCN=C2S1,104 to 107 °C
13,c1ccc(-c2ncc(-c3ccc4cc(OCc5nnn[nH]5)ccc4c3)o2)cc1,239 to 241 °C
14,COc1cc(-n2nc(C)[nH]c2=O)c(F)cc1Cl,193 to 195 °C
15,CC(C)C[C@@H](NC(=O)c1cnc(N2CCC(N3C(=O)OCc4ccccc43)CC2)c(Cl)c1)C(N)=O,139 to 142 °C
16,CC(C)C[C@@H](C=NNC(N)=O)NC(=O)[C@H](Cc1c[nH]cn1)NC(=O)C(CCCCc1ccccc1)Cc1cccc2ccccc12 (some centres undefined),108 to 114 °C
17,Oc1ccc2c(c1)CC(O)C2 (centres undefined),112 to 115 °C
18,CN(c1ccc(Cl)c2cc(C(N)=O)[nH]c12)S(=O)(=O)c1cccs1,252 to 254 °C
19,CCC(Oc1cccc(C(F)(F)F)c1Cl)C1=NCCN1 (centres undefined),102 to 103 °C
20,COc1cc2c(Nc3ccc(Oc4ccccc4)cc3)c(C#N)cnc2cc1OCCN1CCC(N2CCCCC2)CC1,141 °C
21,CCCCCCC(C(=O)O)n1c(C(F)(F)F)nc2cc(-c3ccccc3-c3nn[nH]n3)ccc21 (centres undefined),128 to 130 °C
22,COC(=O)CCOc1ccc(C=O)cc1,48 to 50 °C
23,COc1cc(OCC(=O)N2CCOCC2)c(C=CC(=O)c2ccc(C(=O)O)cc2)cc1-c1cccs1,231 to 233 °C
24,Cc1cccc(-n2c(CCl)nc3ccccc3c2=O)c1,183 to 185 °C

row,Compound,melting point
1,CC(=O)OC1CSC(Oc2cccc(Cl)n2)C(OC(C)=O)C1OC(C)=O (centres undefined),127 °C
2,CCOC(=O)c1c(CN(C)c2ccccn2)nc2cc(OC)c(OC)cc2c1-c1ccc(OC)c(OC)c1,174 to 175 °C
3,Cc1ccccc1-c1ccc(Cl)cc1C(=O)O,135 to 137 °C
4,COC(=O)c1nc(OC)n2c1CN=C(c1ccccc1Cl)c1cc(Cl)ccc1-2,155 to 160 °C
5,O=C(O)c1ccc(NCCOc2ccc(Br)cc2)cc1,190 to 192 °C
6,O=C(N1CCOCC1)C(c1ccccc1)(c1ccccc1)c1ncc[nH]1,113 °C
7,CC(=O)Oc1c(Cl)cc(Cl)cc1C1(OC(C)=O)C(=O)c2ccccc2C1=O,178 to 180 °C
8,CC(Oc1ccc(C(C)(C)C)cc1C(C)(C)C)C(=O)O (centres undefined),106 to 111 °C
9,COS(=O)(=O)Cc1cccc(-c2nc(=O)c3ccccc3s2)n1,102 °C
10,Fc1ccc(C#Cc2nccs2)cc1,78 to 79 °C
11,CCOC(=O)C1=C(COCC(C)O)NC(C)=C(C(=O)OC)C1c1cccc(Cl)c1Cl (centres undefined),110 to 113 °C
12,CS(=O)(=O)c1ccc(C2=C(c3ccc(Cl)cc3)CCC2)cc1,128 °C
13,CCCC12CCC3C4CCCC=C4CCC3C1CCC2O (centres undefined),115 to 119 °C
14,O=C(NCCOc1ccc(CC(Oc2ccc(Cl)cc2)C(=O)O)cc1)c1ccc(-c2ccccn2)cc1 (centres undefined),155 to 156 °C
15,CC1=Nc2c(C)nn(C)c2C2=NC(C)CN12 (centres undefined),169 to 172 °C
16,N#CC=C1CCN(c2ccc(N3C[C@H](CNC(=O)CC#N)OC3=O)cc2F)CC1,150 to 152 °C
17,NC1CCn2c1nc1cc(NC(=O)c3cc4cc(F)ccc4n3Cc3cccc(F)c3)cnc12 (centres undefined),218 to 220 °C
18,Nc1nc(COc2ccc(Cl)c(Cl)c2)nc2nccnc12,261 to 263 °C
19,COC(=O)Cc1c(C)nc(C)nc1Cl,53 to 54 °C
20,CCCn1c(=O)c2[nH]c(-c3ccc4c(c3)OCCO4)nc2n(CCC)c1=O,280 to 282 °C
21,CC(C)(C)OC(=O)NC(=S)NC(=O)OC(C)(C)C,124 to 127 °C
22,C[C@@H](SN1CCOCC1)[C@](O)(Cn1cncn1)c1ccc(F)cc1F,119 to 121 °C
23,COc1cc(C=C(C#N)C(=O)Nc2cccc(Cl)c2)cc(Cl)c1O,225 to 226 °C
24,O=C(O)C1CCc2c(oc3ccc(Cl)cc23)C1 (centres undefined),194 to 198 °C

# The next lines start with the values.
row,melting point,Compound
1,144 to 146 °C,Cn1cc(C(=O)Nc2ccccc2-c2ccc(Cl)cc2)c(C(F)(F)F)n1
2,228 to 230 °C,CC(C)Sc1sc(-c2nnn[nH]2)c2c1C(=O)CC(C)(C)C2
3,49 to 50 °C,Cc1noc(NS(=O)(=O)c2ccc(Cc3ccccc3)s2)c1Br
4,141 to 146 °C,CCCCC=Cc1ccc(Cc2c(C)[nH]c3ccc(C(=O)OC)cc23)c(Cl)c1
5,215 °C,On1c(C(F)(F)F)nc2nc(Br)c(Cl)c(Br)c21
6,61 to 61.4 °C,CC1(C)c2ccccc2C(C)(C)N1Cc1ccccc1
7,132 to 133 °C,CC(=O)Nc1ccc(OC2SCC(OC(C)=O)C(OC(C)=O)C2OC(C)=O)cn1 (centres undefined)
8,151 °C,CC(C)Nc1c(-c2cc(F)cc(F)c2F)c(Cl)nc2ncnn12
9,152 °C,O=C1C(O)=C([N+](=O)[O-])C(=O)c2ccc(F)cc21
10,192 to 194 °C,Clc1cc2cc[nH]c2cn1
11,81 to 83 °C,CC(C)CC1C(OC2CCCCO2)CC(=O)N1C(=O)OC(C)(C)C (centres undefined)
12,188 to 189 °C,Cc1cc([C@@H](O)[C@@H](C)N2CCC(O)(c3ccc(F)cc3)CC2)ccc1O[Si](C(C)C)(C(C)C)C(C)C (relative stereo)
13,242 to 244 °C,S=C1Nc2ccccc2CN(c2ccccc2)N1
14,212 to 214 °C,COC(=O)c1oc2ccc(Cl)cc2c1-c1ccccc1C
15,114 to 118 °C,CC=CCn1c(C)c(C)c2cnnc(CCc3ccc(F)cc3F)c21
16,179 to 184 °C,COc1ccc(C2=NN(C3CCN(S(=O)(=O)c4ccc(C)cc4)CC3)C(=O)CC2)cc1OC
17,190 to 192 °C,CCCc1nc2c(N)nc3ccc(N)cc3c2s1
18,128 to 130 °C,Cc1cccc(C2(O)CCC(=O)N2C)c1 (centres undefined)
19,128 to 129 °C,CCOC(=O)c1cccc(-c2c(OC)cccc2C(=O)O)c1

row,melting point,Compound
1,230 to 232 °C,Cc1c(C(=O)O)oc2cc(S)ccc12
2,35 to 37 °C,O=C(Cl)c1cc(F)c(Cl)c([N+](=O)[O-])c1Cl
3,> 320 °C,CC(C)(C)c1csc(-c2cc3cc(CC(C(=O)O)C(=O)O)ccc3o2)n1
4,189 °C,CC(O)c1cc(NC(=O)OC(C)(C)C)ccc1NC(=O)OC(C)(C)C (centres undefined)
5,287 to 291 °C,O=c1c2cc(F)ccc2[nH]c2c([N+](=O)[O-])ccc(Cl)c12
6,133 to 136 °C,C[C@H](NC(=O)[C@@H]1CCCN1CCC(=O)O)C(=O)N1CCC[C@H]1C(=O)O
7,133 to 134 °C,CC=CC1=C(O)C(=O)c2ccccc2C1=O
8,48 to 50 °C,CCOC(=O)c1csc(C2CCC2)n1
9,182 to 184 °C,CS(=O)c1c2ccccc2c(C=O)c2ccccc12 (centres undefined)
10,79 to 81 °C,Cc1ccc(NCC2CCN(C(C)C3CC3)CC2)c(C(=O)Nc2ccc(Cl)cn2)c1 (centres undefined)
11,235 to 236 °C,O=C(Nc1cccnn1)N1CCN(c2ccnc(-c3cccc(F)c3F)n2)CC1
12,196 to 198 °C,Nc1nc(Cl)c2c(n1)CCCS2
13,67 to 69 °C,CCCSc1ccc(Oc2ccc(Cl)c(Cl)c2)nc1C#N
14,189 to 191 °C,CCN(c1cccc(-c2ccnc3c([N+](=O)[O-])cnn23)c1)S(=O)(=O)c1ccccc1
15,176 to 178 °C,NCCC(O)(c1ccc(-c2ccccc2)cc1)c1ccc(-c2ccccc2)cc1
16,> 300 °C,Cn1ncc2c1-c1c(Cc3ccccc3)sc(C(=O)O)c1CC2
17,85 °C,CCCC(=NOCC)C1=C(O)CC(c2cc(C3CCOC3)no2)CC1=O (centres undefined)
18,172 to 175 °C,O=C(O)c1cn(C2CSC2)c2c(F)c(F)c(F)cc2c1=O
19,247 to 249 °C,CN1CCC(c2[nH]c(=O)c3ccccc3c2-c2ccccc2F)CC1

row,melting point,Compound
1,123 °C,O=Cc1cc2ccc3c4ccccc4ccc3c2o1
2,130 °C,COc1cc2c(c(OC)c1OC)COc1c(C(F)(F)F)nn(-c3ccc(S(N)(=O)=O)cc3)c1-2
3,115 to 117 °C,COC1=CC(=O)NCC1
4,139 to 140 °C,CS(=O)(=O)N(Cc1cccnc1)c1ccc(Oc2ccccc2)cc1
5,214 to 215 °C,O=C(/C=C/c1ccc(C(F)(F)F)cc1Br)Nc1ccc2ncsc2c1
6,63 to 64 °C,CC(OC(=O)NCC1(CC(=O)O)CCCCC1)OC(=O)C(C)C (centres undefined)
7,73 to 74 °C,CCOC(=O)[C@H]1C2C1[C@](N[C@H](C)c1ccccc1)(C(=O)OCC)C[C@@H]2O (some centres undefined)
8,247 to 249 °C,COc1cc2ncnc(NNC(N)=O)c2cc1OC
9,142 to 150 °C,CN(C)S(=O)(=O)n1cc(C(=O)c2c(Cl)cc(Cl)cc2Cl)nc1C#N
10,60 °C,COC(=O)C1=C(N)C(C)SC1 (centres undefined)
11,48 to 49 °C,C=CCOC(=O)C1CC(=O)N(C2CC(C)(C)N(C)C(C)(C)C2)C1 (centres undefined)
12,132 to 134 °C,CC(C)(C)c1cc(-n2nc3ccc(Sc4ccccc4)cc3n2)c(O)c(C(C)(C)C)c1
13,277 to 281 °C,O=C(Nc1nc(-c2ccco2)c(-c2ccncc2)s1)c1cc[nH]c(=O)c1
14,> 200 °C,Cc1cc(C)c(C=C(C(=O)O)c2csc(N)n2)c(C)c1
15,137 to 138 °C,N#Cc1ccc(N2CCN(Cc3cn4cc(Cl)ccc4n3)CC2)c(Cl)c1
16,> 250 °C,CC(=O)NNc1ccnc2c(NC(=O)c3c(Cl)cccc3Cl)cc(C)c(C)c12
17,212 to 213 °C,O=C(O)c1cnc(NCc2cccs2)nc1-c1ccccc1
18,> 300 °C,Cc1ccsc1C(=O)c1sc(Nc2ccc(-n3ccnc3)cc2)nc1N
